In the test the test system is Candida albicans ATCC 10231. Kind of test: Antimicrobial activity, 6 hr log kill of C. albicans. Type of test: cell-based. How it is done: The test procedure for testing antimicrobial activity against specified test organisms is as follows: A 10-mL aliquot of test sample was transferred into a single polypropylene test tube. Sterile Dulbecco's Phosphate-Buffered Saline with 0.05 w/v % Polysorbate 80 (DPBST) was transferred into a separate polypropylene test tube and used as a control. All samples and control were stored at 20-25° C. throughout the duration of the test. Test cultures of specified test organisms were cultured and prepared in the conventional manner using Saboraud Dextrose Agar (SDA) as the growth medium. The challenge organism inoculum was adjusted to approximately 1×10e7-1×10e8 CFU/mL in DPBST. Fifty μL of culture inoculum was added to 10.0 mL of each test sample and control, so that the final inoculum level was in the range of 1×10e5 to 1×10e6 CFU (colony forming units) per mL of specified test organism. Contact time intervals for testing activity against the specified test organism were typically within 4 or 6 hours, e.g., 15 minutes, 30 minutes, 45 minutes, 1 hour, 2 hours, 4 hours and 6 hours, to remain within the intended product label instructions for maximum contact lens soak time.
Following incubation, the number of surviving organisms was enumerated by serial dilution and culture on SDA medium. An appropriate neutralizing disinfectant medium was used for performing serial dilutions (e.g. Letheen Neutralizing Broth containing 0.5% Polysorbate 80 media—LetheenT80). Additionally, the numbers of colony-forming-units (CFU) were counted and the Log 10 reduction in viable number calculated for test solutions based on the initial time zero challenge inoculum in the control solution.

The mark [1] stands for this setting: Table II formula, 6 hour soaking.

Some results are limits rather than exact numbers.

`[H]/N=C(\N/C(=N/[H])NCCCCCCNC(=N)NC(=N)Nc1ccc(Cl)cc1)Nc1ccc(Cl)cc1` [chlorhexidine]: the “log kill from chlorhexidine alone in the same formula” value (5.00 ppm chlorhexidine, 6 hours, C. albicans) is “about 0.5 log”. Under setting [1], the “chlorhexidine concentration needed to achieve a 2-log kill against C. albicans (FIG. 2)” value is on record as above 12 ppm and the “chlorhexidine concentration needed to achieve a 3-log kill against C. albicans (FIG. 2)” value was above 15 ppm.
Take `CCCCC(CC)CNC(=N)NC(=N)NCCCCCCNC(=N)NC(=N)NCC(CC)CCCC` (stereo not drawn) [alexidine]: the “log kill from alexidine alone in the same formula” value (1.05 ppm alexidine, 6 hours, C. albicans) is reported as “about 1.4 log”. In addition, where the note is “alexidine at 1.00 ppm in Table 1 formula, 6 hour soaking”, the “log kill of C. albicans (FIG. 1)” value came to 1.3 log.
Take “poly[(dimethyliminio)-2-butene-1,4-diyl chloride], α-[4-[tris(2-hydroxyethyl) ammonio]-2-butenyl]-Ω-[tris(2-hydroxyethyl)ammonio]-dichloride [PQ-1]”: the “effect of PQ-1 on C. albicans (in words)” value (in the presence of 0.65% trisodium citrate dihydrate) is on record as “little effect”.

The record behind these values is US9132106B2, “Synergistic ophthalmic compositions for disinfecting contact lenses” (Abbott Medical Optics Inc., priority 2013, dated 2015).
